Active and inactive are the calls of the source. The calls are words filed in the database; no cut-off is given here.
Assays:
[1] = target: T1, Mu-type opioid receptor (Rattus norvegicus, UniProt P33535); experiment: Agonist activity at rat MOR expressed in rat C6 cells after 1 hr by [35S]GTPgammaS binding assay; type: functional, cell-based
[2] = target: T2, Kappa-type opioid receptor (Homo sapiens, UniProt P41145); experiment: Displacement of [3H]diprenorphine from human KOR expressed in CHO cells after 1 hr by liquid scintillation counting method; type: cell-based
[3] = target: T1, Mu-type opioid receptor; experiment: Displacement of [3H]diprenorphine from rat MOR expressed in rat C6 cells after 1 hr by liquid scintillation counting method; type: cell-based
[4] = target: T2, Kappa-type opioid receptor; experiment: Agonist activity at human KOR expressed in CHO cells after 1 hr by [35S]GTPgammaS binding assay; type: functional, cell-based
[5] = target: T3, Delta-type opioid receptor (Rattus norvegicus, UniProt P33533); experiment: Displacement of [3H]diprenorphine from rat DOR expressed in rat C6 cells after 1 hr by liquid scintillation counting method; type: cell-based
[6] = target: T2, Kappa-type opioid receptor; experiment: Agonist activity at human KOR expressed in CHO cells at 10 uM after 1 hr by [35S]GTPgammaS binding assay relative to U69,593; type: functional, cell-based
[7] = target: Mu-type opioid receptor (Rattus norvegicus) (UniProt P33535); experiment: Agonist activity at rat MOR expressed in rat C6 cells at 10 uM after 1 hr by [35S]GTPgammaS binding assay relative to DAMGO; type: functional, cell-based
[8] = target: T3, Delta-type opioid receptor; experiment: Agonist activity at rat DOR expressed in rat C6 cells after 1 hr by [35S]GTPgammaS binding assay; type: functional, cell-based
[9] = target: Delta-type opioid receptor (Rattus norvegicus) (UniProt P33533); experiment: Agonist activity at rat DOR expressed in rat C6 cells at 10 uM after 1 hr by [35S]GTPgammaS binding assay relative to DPDPE; type: functional, cell-based
Delta-type opioid receptor (Rattus norvegicus), sequence (P33533 whole entry): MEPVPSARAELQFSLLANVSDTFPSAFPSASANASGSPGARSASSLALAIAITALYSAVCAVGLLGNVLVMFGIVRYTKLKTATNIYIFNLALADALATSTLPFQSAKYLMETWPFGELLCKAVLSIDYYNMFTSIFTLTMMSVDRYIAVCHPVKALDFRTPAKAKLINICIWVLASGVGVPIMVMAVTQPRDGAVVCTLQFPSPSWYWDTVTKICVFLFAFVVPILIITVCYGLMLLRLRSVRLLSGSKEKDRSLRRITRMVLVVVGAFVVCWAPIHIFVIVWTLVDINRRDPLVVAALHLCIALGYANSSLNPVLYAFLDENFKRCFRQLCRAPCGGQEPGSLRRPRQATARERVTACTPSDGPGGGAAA

T3 sequence (P33533 whole entry): as above
T2 sequence (P41145 whole entry): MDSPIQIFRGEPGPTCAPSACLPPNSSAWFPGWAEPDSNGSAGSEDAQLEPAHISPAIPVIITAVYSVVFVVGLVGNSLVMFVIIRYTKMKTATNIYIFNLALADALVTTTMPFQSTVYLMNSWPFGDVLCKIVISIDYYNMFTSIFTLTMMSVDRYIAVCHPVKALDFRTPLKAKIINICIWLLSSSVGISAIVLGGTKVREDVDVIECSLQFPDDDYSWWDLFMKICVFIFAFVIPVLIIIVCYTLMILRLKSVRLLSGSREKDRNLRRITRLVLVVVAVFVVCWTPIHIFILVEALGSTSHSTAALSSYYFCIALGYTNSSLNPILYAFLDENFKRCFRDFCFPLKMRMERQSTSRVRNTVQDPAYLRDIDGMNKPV
T1 sequence (P33535 whole entry): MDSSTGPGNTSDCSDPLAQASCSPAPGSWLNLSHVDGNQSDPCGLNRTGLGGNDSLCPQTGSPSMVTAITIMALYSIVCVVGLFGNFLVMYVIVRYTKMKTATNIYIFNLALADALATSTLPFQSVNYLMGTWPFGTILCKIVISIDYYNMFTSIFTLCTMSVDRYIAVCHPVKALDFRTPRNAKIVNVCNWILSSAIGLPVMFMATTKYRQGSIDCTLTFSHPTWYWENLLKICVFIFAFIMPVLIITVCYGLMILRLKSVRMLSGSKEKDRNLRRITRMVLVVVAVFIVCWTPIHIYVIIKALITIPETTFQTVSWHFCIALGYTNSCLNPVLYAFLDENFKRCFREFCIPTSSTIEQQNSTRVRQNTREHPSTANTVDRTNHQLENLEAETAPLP
Mu-type opioid receptor (Rattus norvegicus), sequence (P33535 whole entry): as above

Row | SMILES | EC50 [1] [µM] | Ki [2] [µM] | Ki [3] [µM] | EC50 [4] [µM] | Ki [5] [µM] | max activation [6] [%] | max activation [7] [%] | EC50 ([8]; c6) | max activation [9] | EC50 ([8]; read-out: EC50) [µM]
1 | Cc1cc(O)ccc1C[C@H](N)C(=O)N[C@@H]1CCNc2ccc(Cc3ccccc3)cc21 | 0.044 | 0.096 | 0.0017 | 2.4 | 0.042 | 41 | 69 | Not Active | – | –
2 | N[C@@H](Cc1ccc2cccc(O)c2c1)C(=O)N[C@@H]1CCNc2ccc(Cc3ccccc3)cc21 | – | 2.5 | 0.44 | – | 1.6 | – | – | – | – | –
3 | N[C@@H](Cc1c(Cl)cc(O)cc1Cl)C(=O)N[C@@H]1CCNc2ccc(Cc3ccccc3)cc21 | 0.033 | 0.035 | 0.00047 | 1.2 | 0.037 | 32 | 83 | Not Active | inactive | –
4 | Cc1cc(C[C@H](N)C(=O)N[C@@H]2CCNc3ccc(Cc4ccccc4)cc32)c(C)cc1O | 0.039 | 0.73 | 0.0065 | 0.37 | 0.39 | 22 | 89 | – | 53% | 5.9
5 | Cc1cccc(C)c1C[C@H](N)C(=O)N[C@@H]1CCNc2ccc(Cc3ccccc3)cc21 | 0.28 | 0.13 | 0.018 | 4.8 | 0.66 | 38 | 86 | Not Active | – | –

— ChEMBL document CHEMBL3769345, “Rapid Synthesis of Boc-2',6'-dimethyl-l-tyrosine and Derivatives and Incorporation into Opioid Peptidomimetics” (ACS Med Chem Lett, 2015)
